According to patent publication US20260317324A1, “BIFUNCTIONAL COMPOUNDS FOR DEGRADING BRAF VIA UBIQUITIN PROTEOSOME PATHWAY” (Nurix Therapeutics, Inc., priority 2023, published 2026):

Target: T1, BRAF V600E (Homo sapiens, UniProt P15056, V600E)
T1 construct: endogenous C-terminal HiBiT fusion tag on BRAF V600E allele; endogenous in cells; host or cells: A375 clone 1F10 (CRISPR-Cas9 knock-in of the HiBiT tag; parental A375 from ATCC)
Assay: BRAF HiBiT degradation assay, C-terminal HiBiT-tagged BRAF V600E A375 cells (clone 1F10), Nano-Glo HiBiT Lytic assay
Type: cell-based
Settings: for Dmax: A-375
Summary of the method: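 Steps: seed HiBiT-tagged A375 clone 1F10 cells; incubate 24 h, 37 °C, 5% CO2; add compound (11 half-log points from 1 μM, 0.2% DMSO); lyse with HiBiT detection reagent plus LgBiT for 10 min; read luminescence; fit % protein remaining against concentration.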

[1] = A375 (BRAF V600E), DC50 at 50%: fitted conc. at Y=50
[2] = A375 (BRAF V600E), percentage protein degraded at maximal compound effect relative to DMSO

T1 sequence (P15056 whole entry V600E, the tested form may be a part): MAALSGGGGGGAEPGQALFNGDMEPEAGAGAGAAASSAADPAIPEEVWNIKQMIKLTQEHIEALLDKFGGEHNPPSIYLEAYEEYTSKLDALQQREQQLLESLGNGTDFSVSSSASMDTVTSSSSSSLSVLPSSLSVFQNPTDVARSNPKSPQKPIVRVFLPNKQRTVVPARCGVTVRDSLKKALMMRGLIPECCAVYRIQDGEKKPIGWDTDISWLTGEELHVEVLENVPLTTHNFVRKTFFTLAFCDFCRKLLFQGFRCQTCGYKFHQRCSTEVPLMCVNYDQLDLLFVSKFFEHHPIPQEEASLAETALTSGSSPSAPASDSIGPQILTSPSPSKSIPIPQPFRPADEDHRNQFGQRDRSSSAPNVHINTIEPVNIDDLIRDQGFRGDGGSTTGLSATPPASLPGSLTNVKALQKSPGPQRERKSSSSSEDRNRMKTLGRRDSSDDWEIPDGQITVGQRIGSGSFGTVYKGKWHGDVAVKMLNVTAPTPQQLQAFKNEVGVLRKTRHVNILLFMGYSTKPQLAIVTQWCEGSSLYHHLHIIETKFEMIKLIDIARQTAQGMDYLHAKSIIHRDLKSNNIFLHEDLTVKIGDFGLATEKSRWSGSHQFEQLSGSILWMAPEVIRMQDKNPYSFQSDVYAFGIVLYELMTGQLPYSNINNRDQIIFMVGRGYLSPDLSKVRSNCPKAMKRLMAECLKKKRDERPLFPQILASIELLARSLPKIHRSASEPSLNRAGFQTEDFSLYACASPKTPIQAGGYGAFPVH

| Compound | DC50 [1] | Dmax [2] | DC50 (A375 (BRAF V600E, Class 1), DC50 at 50% degradation) | Dmax (A375 (BRAF V600E, Class 1), observed Dmax, % protein degraded relative to DMSO control) |
| --- | --- | --- | --- | --- |
| O=C1CC[C@H](c2ccc(N3CCC(CN4CCN(c5cnc(-n6cc(-c7cc(F)cc(NS(=O)(=O)N8CCCC8)c7F)c(-c7ccncc7)n6)nc5)CC4)CC3)cc2)C(=O)N1 [Compound 342, N-{3-[1-(5-{4-[(1-{4-[(3R)-2,6-dioxopiperidin-3-yl]phenyl}piperidin-4-yl)methyl]piperazin-1-yl}pyrimidin-2-yl)-3-(pyridin-4-yl)-1H-pyrazol-4-yl]-2,5-difluorophenyl}pyrrolidine-1-sulfonamide] | – | – | < 10 nM | > 70% |
| CCCS(=O)(=O)Nc1cccc(-c2nc(C3CCN(C(=O)[C@H]4CC[C@H](CN5CCc6cc(C7CCC(=O)NC7=O)ccc6C5)CC4)CC3)sc2-c2ccnc(N)n2)c1F (mixture of isomers) [Compound 222, N-{3-[5-(2-aminopyrimidin-4-yl)-2-{1-[(1r,4r)-4-({6-[(3RS)-2,6-dioxopiperidin-3-yl]-1,2,3,4-tetrahydroisoquinolin-2-yl}methyl)cyclohexanecarbonyl]piperidin-4-yl}-1,3-thiazol-4-yl]-2-fluorophenyl}propane-1-sulfonamide] | > 500 nM | 30 to 70% | – | – |
| CCCS(=O)(=O)Nc1cccc(-c2nc(C3CCN(C(=O)C4(C)CCN(C(=O)C5CCN(c6ccc(C7CCC(=O)NC7=O)cn6)CC5)CC4)CC3)sc2-c2ccncc2)c1F (racemic) [Compound 182, Rac-N-[3-(2-{1-[1-(1-{5-[(3R)-2,6-dioxopiperidin-3-yl]pyridin-2-yl}piperidine-4-carbonyl)-4-methylpiperidine-4-carbonyl]piperidin-4-yl}-5-(pyridin-4-yl)-1,3-thiazol-4-yl)-2-fluorophenyl]propane-1-sulfonamide] | < 10 nM | > 70% | – | – |
| CCCS(=O)(=O)Nc1cccc(-c2nc(C3CCC4(CC3)CCN(C(=O)CN3CCN(c5ccc6c(c5)C(=O)N(C5CCC(=O)NC5=O)C6=O)CC3)CC4)sc2-c2ccnc(N)n2)c1F (racemic) [Compound 231, Rac-N-{3-[5-(2-aminopyrimidin-4-yl)-2-{3-[2-(4-{2-[(3R)-2,6-dioxopiperidin-3-yl]-1,3-dioxo-2,3-dihydro-1H-isoindol-5-yl}piperazin-1-yl)acetyl]-3-azaspiro[5.5]undecan-9-yl}-1,3-thiazol-4-yl]-2-fluorophenyl}propane-1-sulfonamide] | < 10 nM | 30 to 70% | – | – |
| CCCS(=O)(=O)Nc1cccc(-c2nc(C(C)(C)C)sc2-c2ccnc(Nc3ccc4c(c3)CCN(C(=O)CN3CCN(c5cc(C6CCC(=O)NC6=O)ccn5)CC3)C4)n2)c1F (racemic) [Compound 120, Rac-N-(3-{2-tert-butyl-5-[2-({2-[2-(4-{4-[(3R)-2,6-dioxopiperidin-3-yl]pyridin-2-yl}piperazin-1-yl)acetyl]-1,2,3,4-tetrahydroisoquinolin-6-yl}amino)pyrimidin-4-yl]-1,3-thiazol-4-yl}-2-fluorophenyl)propane-1-sulfonamide] | 50 to 500 nM | 30 to 70% | – | – |
| CCCS(=O)(=O)Nc1cccc(-c2nc(C(C)(C)C)sc2-c2ccnc(Nc3ccc(C4CCN(C[C@H]5CC[C@H](Oc6ccc(C7CCC(=O)NC7=O)cn6)CC5)CC4)cc3)n2)c1F (mixture of isomers) [Compound 168, N-{3-[2-tert-butyl-5-(2-{[4-(1-{[(1r,4r)-4-({5-[(3RS)-2,6-dioxopiperidin-3-yl]pyridin-2-yl}oxy)cyclohexyl]methyl}piperidin-4-yl)phenyl]amino}pyrimidin-4-yl)-1,3-thiazol-4-yl]-2-fluorophenyl}propane-1-sulfonamide] | 10 to 50 nM | > 70% | – | – |
| CCCS(=O)(=O)Nc1cccc(-c2nc(C(C)(C)C)sc2-c2ccnc(Nc3cccc(OC4CCN(C(=O)CN5CCc6cc(C7CCC(=O)NC7=O)ccc6C5)CC4)c3)n2)c1F (racemic) [Compound 101, Rac-N-[3-(2-tert-butyl-5-{2-[(3-{[1-(2-{6-[(3R)-2,6-dioxopiperidin-3-yl]-1,2,3,4-tetrahydroisoquinolin-2-yl}acetyl)piperidin-4-yl]oxy}phenyl)amino]pyrimidin-4-yl}-1,3-thiazol-4-yl)-2-fluorophenyl]propane-1-sulfonamide] | 10 to 50 nM | > 70% | – | – |

Results, then the compound that gave them:

| DC50 [1] | Dmax [2] | DC50 (A375 (BRAF V600E, Class 1), DC50 at 50% degradation) | Dmax (A375 (BRAF V600E, Class 1), observed Dmax, % protein degraded relative to DMSO control) | Compound |
| --- | --- | --- | --- | --- |
| 10 to 50 nM | 30 to 70% | – | – | CCCS(=O)(=O)Nc1cccc(-c2nc(C(C)(C)C)sc2-c2ccnc(Nc3ccc(N4CCN(CC5CCN(c6ccc([C@@H]7CCC(=O)NC7=O)cc6)CC5)CC4)c(F)c3)n2)c1F [Compound 88, N-[3-(2-tert-butyl-5-{2-[(4-{4-[(1-{4-[(3S)-2,6-dioxopiperidin-3-yl]phenyl}piperidin-4-yl)methyl]piperazin-1-yl}-3-fluorophenyl)amino]pyrimidin-4-yl}-1,3-thiazol-4-yl)-2-fluorophenyl]propane-1-sulfonamide] |
| 50 to 500 nM | 30 to 70% | – | – | CCCS(=O)(=O)Nc1cccc(-c2nc(C(C)(C)C)sc2-c2ccnc(Nc3ccc(C4CCN(C(=O)C5CCN(c6ccc7c(c6)C(=O)N(C6CCC(=O)NC6=O)C7=O)CC5)CC4)cc3)n2)c1F (racemic) [Compound 155, Rac-N-(3-{2-tert-butyl-5-[2-({4-[1-(1-{2-[(3R)-2,6-dioxopiperidin-3-yl]-1,3-dioxo-2,3-dihydro-1H-isoindol-5-yl}piperidine-4-carbonyl)piperidin-4-yl]phenyl}amino)pyrimidin-4-yl]-1,3-thiazol-4-yl}-2-fluorophenyl)propane-1-sulfonamide] |
| 10 to 50 nM | 30 to 70% | – | – | CCCS(=O)(=O)Nc1cccc(-c2nc(C(C)(C)C)sc2-c2ccnc(Nc3cnn(C4CCN(C(=O)C5CCN(c6ccc(C(=O)NC7CCC(=O)NC7=O)nc6)CC5)CC4)c3)n2)c1F (racemic) [Compound 107, Rac-5-[4-(4-{4-[(4-{2-tert-butyl-4-[2-fluoro-3-(propane-1-sulfonamido)phenyl]-1,3-thiazol-5-yl}pyrimidin-2-yl)amino]-1H-pyrazol-1-yl}piperidine-1-carbonyl)piperidin-1-yl]-N-[(3R)-2,6-dioxopiperidin-3-yl]pyridine-2-carboxamide] |
| 50 to 500 nM | 30 to 70% | – | – | CCCS(=O)(=O)Nc1cccc(-c2nc(C(C)(C)C)sc2-c2ccnc(NC[C@H]3CCN(CC4CCN(c5ccc(C(=O)N[C@H]6CCC(=O)NC6=O)nc5)CC4)C3)n2)c1F [Compound 143, 5-(4-{[(3R)-3-{[(4-{2-tert-butyl-4-[2-fluoro-3-(propane-1-sulfonamido)phenyl]-1,3-thiazol-5-yl}pyrimidin-2-yl)amino]methyl}pyrrolidin-1-yl]methyl}piperidin-1-yl)-N-[(3S)-2,6-dioxopiperidin-3-yl]pyridine-2-carboxamide] |
| 50 to 500 nM | 30 to 70% | – | – | CCCS(=O)(=O)Nc1cccc(-c2nc(C(C)(C)C)sc2-c2ccnc(NC3CC4(C3)CN(C(=O)CC3CCN(C5CCN(c6ccc7c(c6)C(=O)N(C6CCC(=O)NC6=O)C7=O)CC5)CC3)C4)n2)c1F (racemic) [Compound 157, Rac-N-(3-{2-tert-butyl-5-[2-({2-[2-(1′-{2-[(3R)-2,6-dioxopiperidin-3-yl]-1,3-dioxo-2,3-dihydro-1H-isoindol-5-yl}-[1,4′-bipiperidin]-4-yl)acetyl]-2-azaspiro[3.3]heptan-6-yl}amino)pyrimidin-4-yl]-1,3-thiazol-4-yl}-2-fluorophenyl)propane-1-sulfonamide] |
| 10 to 50 nM | 30 to 70% | – | – | CCCS(=O)(=O)Nc1cccc(-c2nc(C(C)(C)C)sc2-c2ccnc(Nc3cccc(C4CCN(CC[C@H]5CCN(c6ccc(C7CCC(=O)NC7=O)cn6)C5)CC4)c3)n2)c1F (mixture of isomers) [Compound 74, N-{3-[2-tert-butyl-5-(2-{[3-(1-{2-[(3S)-1-{5-[(3RS)-2,6-dioxopiperidin-3-yl]pyridin-2-yl}pyrrolidin-3-yl]ethyl}piperidin-4-yl)phenyl]amino}pyrimidin-4-yl)-1,3-thiazol-4-yl]-2-fluorophenyl}propane-1-sulfonamide] |
| 10 to 50 nM | 30 to 70% | – | – | CCCS(=O)(=O)Nc1cccc(-c2nc(C(C)(C)C)sc2-c2ccnc(Nc3cccc(C4CCN(C(=O)CN5CCC(c6ccc(NC7CCC(=O)NC7=O)cc6)CC5)CC4)c3)n2)c1F (racemic) [Compound 103, Rac-N-{3-[2-tert-butyl-5-(2-{[3-(1-{2-[4-(4-{[(3R)-2,6-dioxopiperidin-3-yl]amino}phenyl)piperidin-1-yl]acetyl}piperidin-4-yl)phenyl]amino}pyrimidin-4-yl)-1,3-thiazol-4-yl]-2-fluorophenyl}propane-1-sulfonamide] |
| 50 to 500 nM | 30 to 70% | – | – | CCCS(=O)(=O)Nc1cccc(-c2nc(C(C)(C)C)sc2-c2ccnc(NC3CCN(C4CCN(CC5CCN(c6ccc(C7CCC(=O)NC7=O)cn6)CC5)CC4)CC3)n2)c1F (racemic) [Compound 136, Rac-N-(3-{2-tert-butyl-5-[2-({1′-[(1-{5-[(3R)-2,6-dioxopiperidin-3-yl]pyridin-2-yl}piperidin-4-yl)methyl]-[1,4′-bipiperidin]-4-yl}amino)pyrimidin-4-yl]-1,3-thiazol-4-yl}-2-fluorophenyl)propane-1-sulfonamide] |
| 10 to 50 nM | 30 to 70% | – | – | CCCS(=O)(=O)Nc1cccc(-c2nc(C(C)(C)C)sc2-c2ccnc(Nc3ccc(C4CCN(C(=O)C5CCN(CC6CCN(c7ccc(C8CCC(=O)NC8=O)cn7)CC6)CC5)CC4)cc3)n2)c1F (racemic) [Compound 175, Rac-N-{3-[2-tert-butyl-5-(2-{[4-(1-{1-[(1-{5-[(3R)-2,6-dioxopiperidin-3-yl]pyridin-2-yl}piperidin-4-yl)methyl]piperidine-4-carbonyl}piperidin-4-yl)phenyl]amino}pyrimidin-4-yl)-1,3-thiazol-4-yl]-2-fluorophenyl}propane-1-sulfonamide] |
